Usually melting point stands for the temperature of the solid-liquid transition. Usually IC50 stands for the point on the concentration scale where inhibition reaches its midpoint. Low readings indicate greater potency in that assay, high ones weaker potency in that assay.

A value given as a limit tells only on which side of the number the result lay.

These results are taken from publication PMC7782168, “Synthesis, telomerase inhibitory and anticancer activity of new 2-phenyl-4H-chromone derivatives containing 1,3,4-oxadiazole moiety” (Journal of Enzyme Inhibition and Medicinal Chemistry, 2020).

One data set concerns the target T1, telomerase (Homo sapiens, UniProt O14746).
T1 construct: assayed for telomerase activity using MGC-803 cells extract; endogenous in cells; host or cells: MGC-803 cell extract
As to the kind of experiment: Telomerase activity assay using MGC-803 cells extract. In kind it is biochemical. The settings on record: mean ± SD.

T1 sequence (O14746 whole entry): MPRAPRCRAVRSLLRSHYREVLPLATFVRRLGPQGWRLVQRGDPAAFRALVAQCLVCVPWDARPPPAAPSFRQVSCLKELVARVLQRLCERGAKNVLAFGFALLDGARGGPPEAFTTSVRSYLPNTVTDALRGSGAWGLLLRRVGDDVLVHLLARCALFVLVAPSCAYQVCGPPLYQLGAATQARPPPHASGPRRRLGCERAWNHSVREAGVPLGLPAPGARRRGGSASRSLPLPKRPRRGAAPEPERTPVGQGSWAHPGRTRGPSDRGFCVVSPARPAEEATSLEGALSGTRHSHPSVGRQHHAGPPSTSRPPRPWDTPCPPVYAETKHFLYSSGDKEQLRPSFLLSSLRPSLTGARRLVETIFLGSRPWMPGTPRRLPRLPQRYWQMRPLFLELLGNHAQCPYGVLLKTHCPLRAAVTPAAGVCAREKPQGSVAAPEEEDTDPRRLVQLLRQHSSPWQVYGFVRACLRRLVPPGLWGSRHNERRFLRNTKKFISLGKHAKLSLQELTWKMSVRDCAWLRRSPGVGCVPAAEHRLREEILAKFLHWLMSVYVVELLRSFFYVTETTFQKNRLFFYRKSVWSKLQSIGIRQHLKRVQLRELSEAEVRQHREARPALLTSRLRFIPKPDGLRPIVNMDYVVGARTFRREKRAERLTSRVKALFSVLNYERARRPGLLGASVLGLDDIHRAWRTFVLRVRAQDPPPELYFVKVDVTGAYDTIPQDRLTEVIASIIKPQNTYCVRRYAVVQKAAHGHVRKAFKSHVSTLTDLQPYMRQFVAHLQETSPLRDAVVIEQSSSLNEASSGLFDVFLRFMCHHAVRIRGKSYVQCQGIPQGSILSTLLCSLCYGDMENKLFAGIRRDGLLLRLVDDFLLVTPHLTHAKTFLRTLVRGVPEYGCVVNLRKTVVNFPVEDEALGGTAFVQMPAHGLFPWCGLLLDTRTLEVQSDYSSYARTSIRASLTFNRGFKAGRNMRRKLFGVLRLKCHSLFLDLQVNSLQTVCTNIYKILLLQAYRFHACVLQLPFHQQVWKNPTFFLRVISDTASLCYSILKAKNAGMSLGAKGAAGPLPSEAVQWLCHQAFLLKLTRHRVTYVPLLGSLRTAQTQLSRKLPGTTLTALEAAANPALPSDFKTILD
T1 sequence (O60832 2-514 partner limits assumed): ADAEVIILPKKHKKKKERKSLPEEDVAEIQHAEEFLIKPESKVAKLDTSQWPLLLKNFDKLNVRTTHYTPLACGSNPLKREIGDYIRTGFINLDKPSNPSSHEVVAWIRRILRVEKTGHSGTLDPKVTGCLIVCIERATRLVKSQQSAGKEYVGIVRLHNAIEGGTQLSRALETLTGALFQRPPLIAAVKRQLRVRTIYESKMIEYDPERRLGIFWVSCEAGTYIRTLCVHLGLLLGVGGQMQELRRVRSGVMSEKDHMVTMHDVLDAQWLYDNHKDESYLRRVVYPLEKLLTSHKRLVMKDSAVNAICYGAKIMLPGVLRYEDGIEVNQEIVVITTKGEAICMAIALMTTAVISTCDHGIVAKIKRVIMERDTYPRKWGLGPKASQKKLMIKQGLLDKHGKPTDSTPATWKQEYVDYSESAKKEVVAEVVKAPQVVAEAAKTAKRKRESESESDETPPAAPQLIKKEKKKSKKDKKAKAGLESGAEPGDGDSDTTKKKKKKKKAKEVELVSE
T1 sequence (Q9NPE3 whole entry partner): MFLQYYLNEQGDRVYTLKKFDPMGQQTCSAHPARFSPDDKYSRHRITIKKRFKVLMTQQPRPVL
T1 sequence (Q9NX24 whole entry partner): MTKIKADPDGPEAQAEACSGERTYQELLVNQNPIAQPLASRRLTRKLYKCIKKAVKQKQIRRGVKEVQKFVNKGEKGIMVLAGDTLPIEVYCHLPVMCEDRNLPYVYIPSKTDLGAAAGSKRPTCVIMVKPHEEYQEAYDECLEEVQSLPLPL
T1 sequence (Q9NY12 whole entry partner): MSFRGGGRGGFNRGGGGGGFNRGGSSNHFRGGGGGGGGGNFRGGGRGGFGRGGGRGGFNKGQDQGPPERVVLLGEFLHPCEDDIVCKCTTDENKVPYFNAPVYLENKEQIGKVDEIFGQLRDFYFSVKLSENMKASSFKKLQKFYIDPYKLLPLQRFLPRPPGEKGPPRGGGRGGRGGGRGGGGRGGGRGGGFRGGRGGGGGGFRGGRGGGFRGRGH

Molecule `COc1cccc(-c2nnc(NC(=O)COc3c(-c4cc(OC)c(OC)c(OC)c4)oc4cc(OC)cc(OC)c4c3=O)o2)c1` [A23, 2–(5,7-dimethoxy-4-oxo-2–(3,4,5-trimethoxyphenyl)-4H-chromen-3-yloxy)-N-(5–(3-methoxyphenyl)-1,3,4-oxadiazol-2-yl)acetamide] had a melting point of 208 to 210 °C. The same molecule displayed a concentration for half-maximal inhibition (IC50) against telomerase of 1.9 ± 0.42 µM.
For `COc1cc(OC)c2c(=O)c(OCC(=O)Nc3nnc(-c4ccc(Cl)cc4)o3)c(-c3ccc(OC)c(OC)c3)oc2c1` [B5, N-(5–(4-chlorophenyl)-1,3,4-oxadiazol-2-yl)-2–(2-(3,4-dimethoxyphenyl)-5,7-dimethoxy-4-oxo-4H-chromen-3-yloxy)acetamide] the same measures were 213 to 215 °C and 4.22 ± 0.62 µM.
Consider `COc1cc(OC)c2c(=O)c(OCC(=O)Nc3nnc(-c4ccco4)o3)c(-c3ccc(OC)c(OC)c3)oc2c1` [B31, 2–(2-(3,4-dimethoxyphenyl)-5,7-dimethoxy-4-oxo-4H-chromen-3-yloxy)-N-(5-(furan-2-yl)-1,3,4-oxadiazol-2-yl)acetamide], for which the melting point is 233 to 235 °C. For the same molecule, the IC50 at telomerase was 2.82 ± 0.25 µM.
`COc1ccc(-c2nnc(NC(=O)COc3c(-c4ccc(OC)c(OC)c4)oc4cc(OC)cc(OC)c4c3=O)o2)cc1` [B22, 2–(2-(3,4-dimethoxyphenyl)-5,7-dimethoxy-4-oxo-4H-chromen-3-yloxy)-N-(5–(4-methoxyphenyl)-1,3,4-oxadiazol-2-yl)acetamide] gave a melting point of 206 to 208 °C. At telomerase, this molecule returned an IC50 of 14.3 ± 1.33 µM.
The molecule `COc1cc(OC)c2c(=O)c(OCC(=O)Nc3nnc(-c4cccc(C)c4)o3)c(-c3cc(OC)c(OC)c(OC)c3)oc2c1` [A12, 2–(5,7-dimethoxy-4-oxo-2–(3,4,5-trimethoxyphenyl)-4H-chromen-3-yloxy)-N-(5-m-tolyl-1,3,4-oxadiazol-2-yl)acetamide] came in with a melting point of 197 to 199 °C. Also, 15.3 ± 2.85 µM corresponded to half-maximal inhibition at telomerase (IC50).
For `COc1cc(OC)c2c(=O)c(OCC(=O)Nc3nnc(-c4ccco4)o3)c(-c3cc(OC)c(OC)c(OC)c3)oc2c1` [A31, 2–(5,7-dimethoxy-4-oxo-2–(3,4,5-trimethoxyphenyl)-4H-chromen-3-yloxy)-N-(5-(furan-2-yl)-1,3,4-oxadiazol-2-yl)acetamide] the same measures were 240 to 242 °C and 2.75 ± 0.19 µM.
In the case of `COc1cc(OC)c2c(=O)c(OCC(=O)Nc3nnc(-c4cccc(F)c4)o3)c(-c3ccc(OC)c(OC)c3)oc2c1` [B3, 2–(2-(3,4-dimethoxyphenyl)-5,7-dimethoxy-4-oxo-4H-chromen-3-yloxy)-N-(5–(3-fluorophenyl)-1,3,4-oxadiazol-2-yl)acetamide], the melting point was 229 to 231 °C. Further, at telomerase, the IC50 was determined as 4.3 ± 0.77 µM.
For `COc1cc(OC)c2c(=O)c(OCC(=O)Nc3nnc(-c4ccccc4Br)o3)c(-c3ccc(OC)c(OC)c3)oc2c1` [B10, N-(5–(2-bromophenyl)-1,3,4-oxadiazol-2-yl)-2–(2-(3,4-dimethoxyphenyl)-5,7-dimethoxy-4-oxo-4H-chromen-3-yloxy)acetamide] the same measures were 226 to 228 °C and above 60 µM.
For `COc1cc(OC)c2c(=O)c(OCC(=O)Nc3nnc(-c4cccc(OC(F)(F)F)c4)o3)c(-c3ccc(OC)c(OC)c3)oc2c1` [B20, 2–(2-(3,4-dimethoxyphenyl)-5,7-dimethoxy-4-oxo-4H-chromen-3-yloxy)-N-(5–(3-(trifluoromethoxy)phenyl)-1,3,4-oxadiazol-2-yl)acetamide] the same measures were 207 to 209 °C and 20 ± 1.96 µM.
In turn, `COc1cc(OC)c2c(=O)c(OCC(=O)Nc3nnc(-c4ccc(OC(F)(F)F)cc4)o3)c(-c3cc(OC)c(OC)c(OC)c3)oc2c1` [A19, 2–(5,7-dimethoxy-4-oxo-2–(3,4,5-trimethoxyphenyl)-4H-chromen-3-yloxy)-N-(5–(4-(trifluoromethoxy)phenyl)-1,3,4-oxadiazol-2-yl)acetamide] showed a melting point of 230 to 232 °C. Also, the IC50 on telomerase was determined as 1.21 ± 0.29 µM.
Consider `COc1cc(OC)c2c(=O)c(OCC(=O)Nc3nnc(-c4cccc5ccccc45)o3)c(-c3cc(OC)c(OC)c(OC)c3)oc2c1` [A28, 2–(5,7-dimethoxy-4-oxo-2–(3,4,5-trimethoxyphenyl)-4H-chromen-3-yloxy)-N-(5-(naphthalen-1-yl)-1,3,4-oxadiazol-2-yl)acetamide], for which the melting point lay in the range of 238 to 240 °C. At telomerase, it took 6.17 ± 0.99 µM to reach half-maximal inhibition (IC50).
For `COc1cc(OC)c2c(=O)c(OCC(=O)Nc3nnc(-c4cccc(Br)c4)o3)c(-c3cc(OC)c(OC)c(OC)c3)oc2c1` [A9, N-(5–(3-bromophenyl)-1,3,4-oxadiazol-2-yl)-2–(5,7-dimethoxy-4-oxo-2–(3,4,5-trimethoxyphenyl)-4H-chromen-3-yloxy)acetamide] the same measures were 202 to 204 °C and 2.01 ± 0.39 µM.
The molecule `COc1cccc(-c2nnc(NC(=O)COc3c(-c4ccc(OC)c(OC)c4)oc4cc(OC)cc(OC)c4c3=O)o2)c1` [B23, 2–(2-(3,4-dimethoxyphenyl)-5,7-dimethoxy-4-oxo-4H-chromen-3-yloxy)-N-(5–(3-methoxyphenyl)-1,3,4-oxadiazol-2-yl)acetamide] came in with a melting point of 205 to 207 °C. Besides, it took 2.44 ± 0.42 µM to reach half-maximal inhibition against telomerase (IC50).
For `COc1cc(OC)cc(-c2nnc(NC(=O)COc3c(-c4ccc(OC)c(OC)c4)oc4cc(OC)cc(OC)c4c3=O)o2)c1` [B26, N-(5–(3,5-dimethoxyphenyl)-1,3,4-oxadiazol-2-yl)-2–(2-(3,4-dimethoxyphenyl)-5,7-dimethoxy-4-oxo-4H-chromen-3-yloxy)acetamide] the same measures were 200 to 202 °C and 3.99 ± 0.85 µM.
For `COc1cc(OC)c2c(=O)c(OCC(=O)Nc3nnc(-c4ccc(Cl)c(Cl)c4)o3)c(-c3cc(OC)c(OC)c(OC)c3)oc2c1` [A25, N-(5–(3,4-dichlorophenyl)-1,3,4-oxadiazol-2-yl)-2–(5,7-dimethoxy-4-oxo-2–(3,4,5-trimethoxyphenyl)-4H-chromen-3-yloxy)acetamide] the same measures were 222 to 224 °C and above 60 µM.
For `COc1cc(OC)c2c(=O)c(OCC(=O)Nc3nnc(-c4ccccc4OC(F)(F)F)o3)c(-c3ccc(OC)c(OC)c3)oc2c1` [B21, 2–(2-(3,4-dimethoxyphenyl)-5,7-dimethoxy-4-oxo-4H-chromen-3-yloxy)-N-(5–(2-(trifluoromethoxy)phenyl)-1,3,4-oxadiazol-2-yl)acetamide] the same measures were 226 to 228 °C and 9.22 ± 1.01 µM.
In the case of `COc1cc(OC)c2c(=O)c(OCC(=O)Nc3nnc(-c4cccc(Cl)c4)o3)c(-c3ccc(OC)c(OC)c3)oc2c1` [B6, N-(5–(3-chlorophenyl)-1,3,4-oxadiazol-2-yl)-2–(2-(3,4-dimethoxyphenyl)-5,7-dimethoxy-4-oxo-4H-chromen-3-yloxy)acetamide], the melting point was 220 to 222 °C. This molecule yielded an IC50 against telomerase of 15.4 ± 4.2 µM.
Molecule `COc1cc(OC)c2c(=O)c(OCC(=O)Nc3nnc(-c4ccccc4C)o3)c(-c3cc(OC)c(OC)c(OC)c3)oc2c1` [A13, 2–(5,7-dimethoxy-4-oxo-2–(3,4,5-trimethoxyphenyl)-4H-chromen-3-yloxy)-N-(5-o-tolyl-1,3,4-oxadiazol-2-yl)acetamide] displayed a melting point of 205 to 207 °C. The same molecule came in with an IC50 at telomerase of 25.1 ± 2.01 µM.
Consider `COc1cc(OC)c2c(=O)c(OCC(=O)Nc3nnc(-c4ccccc4[N+](=O)[O-])o3)c(-c3ccc(OC)c(OC)c3)oc2c1` [B15, 2–(2-(3,4-dimethoxyphenyl)-5,7-dimethoxy-4-oxo-4H-chromen-3-yloxy)-N-(5–(2-nitrophenyl)-1,3,4-oxadiazol-2-yl)acetamide], for which the melting point was in the range of 254 to 256 °C. Inhibition against telomerase was half-maximal at 17.2 ± 2.98 µM (IC50).
`COc1cc(OC)c2c(=O)c(OCC(=O)Nc3nnc(-c4ccccc4C(F)(F)F)o3)c(-c3ccc(OC)c(OC)c3)oc2c1` [B18, 2–(2-(3,4-dimethoxyphenyl)-5,7-dimethoxy-4-oxo-4H-chromen-3-yloxy)-N-(5–(2-(trifluoromethyl)phenyl)-1,3,4-oxadiazol-2-yl)acetamide] gave a melting point of 225 to 227 °C. The IC50 on telomerase was determined as 2.79 ± 0.55 µM.
In the case of `COc1cc(OC)c2c(=O)c(OCC(=O)Nc3nnc(-c4ccc(Cl)c(Cl)c4)o3)c(-c3ccc(OC)c(OC)c3)oc2c1` [B25, N-(5–(3,4-dichlorophenyl)-1,3,4-oxadiazol-2-yl)-2–(2-(3,4-dimethoxyphenyl)-5,7-dimethoxy-4-oxo-4H-chromen-3-yloxy)acetamide], the melting point was 230 to 232 °C. This molecule displayed an IC50 against telomerase above 60 µM.
For `COc1cc(OC)cc(-c2nnc(NC(=O)COc3c(-c4cc(OC)c(OC)c(OC)c4)oc4cc(OC)cc(OC)c4c3=O)o2)c1` [A26, 2–(5,7-dimethoxy-4-oxo-2–(3,4,5-trimethoxyphenyl)-4H-chromen-3-yloxy)-N-(5–(3,5-dimethoxyphenyl)-1,3,4-oxadiazol-2-yl)acetamide] the same measures were 198 to 200 °C and 1.06 ± 0.11 µM.
For `COc1cc(OC)c2c(=O)c(OCC(=O)Nc3nnc(-c4ccccc4C)o3)c(-c3ccc(OC)c(OC)c3)oc2c1` [B13, 2–(2-(3,4-dimethoxyphenyl)-5,7-dimethoxy-4-oxo-4H-chromen-3-yloxy)-N-(5-o-tolyl-1,3,4-oxadiazol-2-yl)acetamide] the same measures were 234 to 236 °C and 8.09 ± 2.25 µM.
For `COc1ccc(-c2nnc(NC(=O)COc3c(-c4cc(OC)c(OC)c(OC)c4)oc4cc(OC)cc(OC)c4c3=O)o2)cc1` [A22, 2–(5,7-dimethoxy-4-oxo-2–(3,4,5-trimethoxyphenyl)-4H-chromen-3-yloxy)-N-(5–(4-methoxyphenyl)-1,3,4-oxadiazol-2-yl)acetamide] the same measures were 239 to 241 °C and 9.11 ± 1.88 µM.
Regarding `COc1cc(OC)c2c(=O)c(OCC(=O)Nc3nnc(-c4ccc(Br)cc4)o3)c(-c3ccc(OC)c(OC)c3)oc2c1` [B8, N-(5–(4-bromophenyl)-1,3,4-oxadiazol-2-yl)-2–(2-(3,4-dimethoxyphenyl)-5,7-dimethoxy-4-oxo-4H-chromen-3-yloxy)acetamide], the melting point was 212 to 214 °C. The molecule further yielded an IC50 against telomerase of 4.29 ± 0.83 µM.
